Test results as given in patent US7625696B2, “Screening method” (Takeda Pharmaceutical Company Limited, priority 2003, dated 2009).

How the values were obtained:
human GPR30 = molecular target: T1, human GPR30 (Homo sapiens, UniProt Q99527, P21A/Q20H); assay: Intracellular calcium ion level-increasing activity using FLIPR, human GPR30 cells; type: cell-based; conditions: human GPR30-expressed CHO cells, Fluo 3-AM, up to 100 μM (FIGS. 1-3, 7)
T1 construct: expressed in transfected cells; host or cells: CHO/dhfr- cells (ATCC), clone #19
From the text: (§1) The cDNA (SEQ ID NO: 5) for human GPR30 was cloned by known PCR techniques to incorporate the cDNA into pAKKO1.11H expression vector (Biochemica et Biophysica Acta, 1219 (1994) 251-259). The structure of plasmid was verified by restriction enzyme digestion and sequencing analysis and a correctly constructed plasmid was used as CHO cell expression plasmid pAK-hGPR30.
This plasmid pAK-hGPR30 was transfected to CHO/dhfr− cells (American Type Culture Collection) by electroporation. First, plasmid pAK-hGPR30 was digested with restriction enzyme Ahd I. A cuvette for electroporation received 5×10^6 CHO/dhfr− cells suspended in 500 μl of PBS and 5 μg of plasmid DNA dissolved in 10 μl of TE buffer. The mixture was settled on ice for 5 minutes and subjected to electroporation under conditions of […] and 960 μF. After settling on ice for 5 minutes, the total volume of CHO/dhfr− cells were plated in a T75 flask and incubated in nucleic acid-containing MEMalpha medium (Invitrogen, Inc.) supplemented with 10% fetal bovine serum (BIO WHITTAKER, Inc.) at 37° C. in 5% carbon dioxide for one day. The cells were dispersed by trypsin treatment, recovered from the flask and plated in a 96-well plate by 200 counts or 500 counts per well. Incubation was initiated in nucleic acid-free MEMalpha medium (Invitrogen, Inc.) supplemented with 10% dialyzed fetal bovine serum (JRH BIOSCIENCES, Inc.) and 50 μg/ml gentamicin at 37° C. in 5% carbon dioxide. The plasmid-transfected transformants of CHO cells grew in the medium but the non-transfected cells gradually died. On Days 8 to 10 after the incubation, one colony that kept growing in one well of the 96-well plate were isolated and approximately 48 colonies of the transformants of CHO cells were selected. From each cell selected, RNA was recovered using a commercially available kit for RNA isolation. Subsequently, transformant CHO cell #19 clone highly expressing human GPR30 was selected by known TaqMan RT-PCR (hereinafter briefly referred to as human GPR30 cell). […]

rat GPR30 = molecular target: T2, rat GPR30 (Rattus norvegicus, UniProt O08878, S320N); assay: Intracellular calcium ion level-increasing activity using FLIPR, rat GPR30 cells; type: cell-based; conditions: rat GPR30-expressed CHO cells, Fluo 3-AM, up to 100 μM (FIGS. 4-6, 8)
T2 construct: expressed in transfected cells; host or cells: CHO/dhfr- cells (ATCC), clone #6
T2 sequence (O08878 1-375 S320N): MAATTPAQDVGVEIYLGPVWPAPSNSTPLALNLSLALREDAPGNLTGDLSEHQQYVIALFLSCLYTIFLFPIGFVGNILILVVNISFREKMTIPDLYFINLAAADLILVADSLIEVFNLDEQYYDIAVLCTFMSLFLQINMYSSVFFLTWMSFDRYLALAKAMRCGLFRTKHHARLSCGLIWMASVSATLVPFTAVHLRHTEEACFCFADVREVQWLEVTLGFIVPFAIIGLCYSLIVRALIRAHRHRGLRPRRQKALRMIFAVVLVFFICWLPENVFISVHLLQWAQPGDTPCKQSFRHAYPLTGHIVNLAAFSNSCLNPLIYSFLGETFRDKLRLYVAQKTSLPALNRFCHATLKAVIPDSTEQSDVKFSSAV
From the text: as §1, with “6)” for “5)”, “rat” for “human”, “pAK-rGPR30.” for “pAK-hGPR30.”
In accordance with the procedures described in REFERENCE EXAMPLE 1, this plasmid pAK-rGPR30 was transfected to CHO/dhfr− cells (American Type Culture Collection) by electroporation and transformant CHO cell #6 clone highly expressing rat GPR30 was selected was selected (hereinafter briefly referred to as rat GPR30 cell).
(§2) The human GPR30 and rat GPR30 cells obtained in REFERENCE EXAMPLES above were suspended in medium (10% dFBS-DMEM) in 15×10^4 cells/ml, respectively. A 200 μl aliquot of the suspension was plated in each well of a 96-well plate (Black plate clear bottom, Coster, Inc.) for FLIPR, using an 8 channel pipette (3.0×10^4 cells/200 μl/well), and cultured at 37° C. overnight in a 5% CO2 incubator, which was provided for use (hereinafter referred to as the cell plate). Then, 20 ml of H/HBSS (9.8 g of Nissui HANKS 2 (Nissui Seiyaku Co., Ltd.), 0.35 g of sodium hydrogencarbonate, 4.77 g of HEPES; after adjusting the pH to 7.4 with 6 M sodium hydroxide solution, sterilization through a filter followed), 200 μl of 250 mM Probenecid and 200 μl of fetal bovine serum (FBS) were mixed. […]
(§3) All trans-retinol, all trans-retinal or 4-HPR (4-hydroxyphenylretinamide) was added to and diluted with 150 μl of H/HBSS containing 2.5 mM Probenecid and 0.1% CHAPS or H/HBSS containing 2.5 mM Probenecid, 0.1% CHAPS and 0.2% BSA; the dilution was transferred to a 96-well plate (V-Bottom Plate, Coster, Inc.) for FLIPR (hereinafter, the sample plate). […] Changes in fluorescence intensity were measured with passage of time to determine the intracellular calcium ion level-increasing activities.

GPR30 = assay: Intracellular calcium increase in GPR30-expressed CHO cells (summary statement); type: cell-based; conditions: stimulation with the compound
Procedure: as §2, §3

nuclear receptor PAR = conditions: J. Biol. Chem. 271 (37), 22441-22446, 1996; cited from earlier work
various cancer cells = conditions: J. Biol. Chem. 271 (37), 22441-22446, 1996; cited from earlier work

T1 sequence (Q99527 whole entry Q20H/P21A): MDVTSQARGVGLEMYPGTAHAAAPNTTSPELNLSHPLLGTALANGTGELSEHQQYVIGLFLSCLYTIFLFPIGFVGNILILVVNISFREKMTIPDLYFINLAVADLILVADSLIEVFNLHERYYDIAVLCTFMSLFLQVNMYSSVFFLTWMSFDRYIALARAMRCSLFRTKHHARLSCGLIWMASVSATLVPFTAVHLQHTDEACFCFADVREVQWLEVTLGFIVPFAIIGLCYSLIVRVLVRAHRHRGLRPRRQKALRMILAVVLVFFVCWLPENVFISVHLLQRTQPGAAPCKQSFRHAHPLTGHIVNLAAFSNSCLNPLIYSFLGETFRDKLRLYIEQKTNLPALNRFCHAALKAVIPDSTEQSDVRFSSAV

| Structure (SMILES) | increase in the intracellular calcium ion concentration (change in fluorescence intensity) (human GPR30) | increase in the intracellular calcium ion concentration (change in fluorescence intensity) (rat GPR30) | intracellular calcium in the GPR30-expressed CHO cells (GPR30) | agonist for nuclear receptor (nuclear receptor PAR) | apoptosis of various cancer cells (various cancer cells) |
| --- | --- | --- | --- | --- | --- |
| CC1=C(/C=C/C(C)=C/C=C/C(C)=C/C(=O)Nc2ccc(O)cc2)C(C)(C)CCC1 [4-HPR, 4-hydroxyphenylretinamide] | induced an increase in the intracellular calcium ion concentration in a manner dependent on the concentration | induced an increase in the intracellular calcium ion concentration in a manner dependent on the concentration | specifically increased | is an agonist for nuclear receptor PAR | induces apoptosis of various cancer cells |
| CC1=C(/C=C/C(C)=C/C=C/C(C)=C/C=O)C(C)(C)CCC1 [all trans-retinal] | induced an increase in the intracellular calcium ion concentration in a manner dependent on the concentration | induced an increase in the intracellular calcium ion concentration in a manner dependent on the concentration | – | – | – |
| CC1=C(/C=C/C(C)=C/C=C/C(C)=C/CO)C(C)(C)CCC1 [all trans-retinol] | induced an increase in the intracellular calcium ion concentration in a manner dependent on the concentration | induced an increase in the intracellular calcium ion concentration in a manner dependent on the concentration | specifically increased | – | – |
